{"source": "patent US9381243B2", "about": "“Methods of identifying critically ill patients at increased risk of development of organ failure and compounds for the treatment hereof” (Rigshospitalet, priority 2008, dated 2016)", "key": {"[1]": {"conditions": "depends on administration form and/or dosage; cited from earlier work"}, "[2]": {"test_system": "critically ill patients admitted to the ICU", "experiment": "Retrospective review of haemofiltration with or without Flolan in the filters", "type": "in vivo, human", "procedure": "Ninety-four critically ill patients admitted to the intensive care unit (ICU) underwent haemofiltration with or without concomitant Flolan (prostacyclin) treatment. Flolan was administered in a low dose of 4-6 ng/kg/min in the filters to prevent these from clotting and consequently there was only a minor spill over of Flolan to the systemic circulation. The patients were retrospectively reviewed."}, "[3]": {"test_system": "whole blood haemostatic activity", "experiment": "Whole blood viscoelastical assay (TEG) during Flolan infusion", "type": "in vivo, human", "conditions": "6 healthy volunteers, 4 ng/kg/min IV, after 60 and 120 min infusion", "text": "The TEG analyzer uses a small whole blood sample in a rotating cup and a pin suspended in the blood by a torsion wire, which is monitored for motion. To speed up the clot formation, a standardized amount of an activator of coagulation (e.g. Kaolin, tissue factor) may be added to the cup just before the pin is placed in the cup. The torque of the rotating cup is transmitted to the immersed pin only after fibrin and/or fibrin-platelet bonding has linked the cup and pin together. The strength and rate of these bonds affect the magnitude of the pin motion such that strong clots move the pin directly in phase with cup motion. Thus, the TEG technology documents the interaction of platelets with the protein coagulation cascade from the time of placing the blood in the analyzer until initial fibrin formation, clot rate strengthening and fibrin-platelet bonding via GPIIb/IIIa, through eventual clot lysis. […]\nWith regard to the TEG assay this was performed as recommended by the manufacturer and 340 μl are mixed with 20 μl CaCl 0.2 M (final concentration 11.1 mM in the cup) and kaolin at 37° C. after which the haemostatic activity is recorded as depicted in FIG. 1."}, "[4]": {"test_system": "platelet aggregation in whole blood", "experiment": "Whole blood platelet aggregation (Multiplate) during Flolan infusion", "type": "in vivo, human", "conditions": "6 healthy volunteers, 4 ng/kg/min IV, after 60 and 120 min infusion", "procedure": "Six healthy volunteers were administered flolan (prostacyclin) intravenously at a dose of 4 ng/kg/min for 2 h. Blood samples for whole blood viscoelastical assay (Thrombelastography [TEG]) and whole blood platelet aggregation (Multiplate) was obtained before infusion of Flolan, after 60 min infusion of Flolan and after 120 min infusion of Flolan.\nWhole blood impedance aggregometry analyzed by the Multiple Platelet function Analyzer (MultiPlate® analyzer). Analysis employing various platelet agonists: ASPItest (activation by arachidonic acid), COLtest (activation by collagen through the collagen receptor), TRAPtest (activation by TRAP-6 stimulates the thrombin receptor on the platelet surface and ADPtest (activation by ADP stimulates platelet activation by the ADP receptors).\nMultiPlate continuously records platelet aggregation. The increase of impedance by the attachment of platelets onto the Multiplate sensors is transformed to arbitrary aggregation units (AU) and plotted against time as depicted in FIG. 2."}, "[5]": {"test_system": "patients with severe sepsis", "conditions": "cited from earlier work"}, "[6]": {"conditions": "Flolan 4-6 ng/kg/min in the filters, n = 24"}}}
{"compound": "CC#CCC(C)[C@H](O)/C=C/[C@@H]1[C@H]2c3cccc(CCCC(=O)O)c3O[C@H]2C[C@H]1O", "note": "(mixture of isomers) [Beraprost]", "values": [{"measurement": "half time", "setting": "[1]", "result": "35 to 40", "unit": "min"}]}
{"compound": "CCCCC[C@H](O)/C=C/[C@@H]1[C@H]2C/C(=C/CCCC(=O)O)O[C@H]2C[C@H]1O", "note": "[Flolan, prostacyclin]", "values": [{"measurement": "90 day survival (%)", "setting": "[2]; [6]", "result": 67, "unit": "%"}, {"measurement": "Platelet count (difference before vs. after haemofiltration)", "setting": "[2]; [6]", "result": "+14"}, {"measurement": "haemostatic competence as evaluated by transfusion requirements", "setting": "[2]; critically ill patients undergoing haemofiltration", "result": "does not negatively influence"}, {"measurement": "mortality at 30 days", "setting": "[2]; vs. 39% non-flolan, p=0.12", "result": 21, "unit": "%"}, {"measurement": "mortality at 90 days", "setting": "[2]; vs. 53% non-flolan, p=0.10", "result": 34, "unit": "%"}, {"measurement": "mortality at 365 days", "setting": "[2]; vs. 57% non-flolan, p=0.09", "result": 38, "unit": "%"}, {"measurement": "TEG values (R, Angle, MA) vs baseline", "setting": "[3]", "result": "No significant difference"}, {"measurement": "Multiplate values (ASPI, COL, ADP, TRAP) vs baseline", "setting": "[4]", "result": "no significant difference"}, {"measurement": "half time", "setting": "[1]", "result": "0.5 to 3", "unit": "min"}]}
{"compound": "CC#CCC(C)[C@H](O)/C=C/[C@@H]1[C@H]2C/C(=C/CCCC(=O)O)C[C@H]2C[C@H]1O", "note": "(some centres unmarked) [Iloprost]", "values": [{"measurement": "half time", "setting": "[1]", "result": "20 to 30", "unit": "min"}]}
{"compound": "CSCCNc1nc(SCCC(F)(F)F)nc2c1ncn2[C@@H]1O[C@H](COP(=O)(O)OP(=O)(O)C(Cl)(Cl)P(=O)(O)O)[C@@H](O)[C@H]1O", "note": "[cangrelor]", "values": [{"measurement": "half time", "setting": "[1]", "result": "3 to 5", "unit": "min"}]}
{"compound": "Tifacogin: recombinant tissue factor pathway inhibitor", "values": [{"measurement": "All cause mortality", "setting": "[5]; 1754 patients, severe sepsis, vs 33.9% placebo, p=0.88", "result": 34.2, "unit": "%"}, {"measurement": "risk of bleeding", "setting": "[5]; in vivo", "result": "increase in risk of bleeding"}]}
